One data set has as its target T1, R^0 form of human PTHR-1 (Homo sapiens, UniProt Q03431).
T1 construct: expressed in transfected cells; host or cells: COS-7
T1 sequence (Q03431 27-593): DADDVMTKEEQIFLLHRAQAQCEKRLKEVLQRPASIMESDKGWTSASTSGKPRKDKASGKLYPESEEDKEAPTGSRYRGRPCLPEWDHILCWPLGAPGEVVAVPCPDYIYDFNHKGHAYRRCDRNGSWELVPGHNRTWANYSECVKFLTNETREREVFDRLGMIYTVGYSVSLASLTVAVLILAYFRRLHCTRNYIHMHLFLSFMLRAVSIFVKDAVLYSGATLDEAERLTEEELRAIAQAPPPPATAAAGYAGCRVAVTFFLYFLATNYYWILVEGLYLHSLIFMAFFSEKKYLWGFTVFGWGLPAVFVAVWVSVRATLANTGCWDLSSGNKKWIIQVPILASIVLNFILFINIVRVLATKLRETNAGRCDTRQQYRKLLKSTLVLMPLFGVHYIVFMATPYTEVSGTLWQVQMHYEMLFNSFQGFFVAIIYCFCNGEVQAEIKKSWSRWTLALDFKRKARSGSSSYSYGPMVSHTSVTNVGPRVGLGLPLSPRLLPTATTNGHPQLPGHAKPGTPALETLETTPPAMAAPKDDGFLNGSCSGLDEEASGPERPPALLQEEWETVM
Nature of the data set: Radio-ligand competition binding to R^0 form of human PTHR-1 (COS-7 membranes, 125I-PTH(1-34) tracer, GTPγS). The conditions noted are these: for R^0/RG: Table 4, ratio of R^0 to RG IC50, human PTHR-1; for affinity for the R^0 state of hPTHR-1, in words: compared with PTH(1-34). An excerpt:
Data are means (±SEM) of n≥4 experiments, each performed in duplicate.

The next data set has as its target T2, trypsin (Bos taurus, UniProt P00760).
T2 construct: purchased Sigma Aldrich (St. Louis, Mo.); host or cells: bovine pancreas
T2 sequence (P00760 24-246): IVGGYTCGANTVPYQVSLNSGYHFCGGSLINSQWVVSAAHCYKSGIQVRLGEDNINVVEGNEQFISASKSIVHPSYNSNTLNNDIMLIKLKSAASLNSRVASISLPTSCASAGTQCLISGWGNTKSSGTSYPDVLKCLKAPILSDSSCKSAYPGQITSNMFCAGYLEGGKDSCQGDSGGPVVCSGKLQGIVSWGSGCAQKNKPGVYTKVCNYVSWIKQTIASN
Nature of the data set: Protease stability (trypsin, HPLC assay). In kind it is in vitro ADME, bovine. Conditions: 40 μM peptide, 5 μg/mL trypsin, TBS, room temperature. The protocol: Locations of β^3 residues in B5 and D6 are indicated by highlighted residues. Solutions of 40 μM peptide in TBS were incubated at room temperature with 5 μg/mL trypsin. Vertical lines indicate observation by MALDI-MS of one or both products consistent with hydrolysis of the backbone amide bond between the noted residues. […] Each data point represents the average of measurements from duplicate experiments, with error bars corresponding to the standard deviation.
An HPLC assay was used to assess proteolytic stability.^30, 32 Peptide concentration was determined by UV-Vis spectroscopy (calculated from the UV-vis absorption at 280 nm, ε280 nm=5,690 M^−1 cm^−1 for all peptides except D6 and D7, ε280 nm=11,380 M^−1 cm^−1 based on an extinction coefficient for the tryptophan sidechain chromophore of 5,690 M^−1 cm^−1).^33 Peptide stock solutions were prepared in degassed water to a concentration of 200 μM. […] A portion (75 μL) of the quenched reaction mixture was injected onto an analytical RP-HPLC (see peptide synthesis and purification section above), and peaks were analyzed. The time course of peptide degradation was experimentally determined by integrating the area of the peak corresponding to the non-hydrolyzed peptide in a series of HPLC traces, with duplicate proteolysis reactions being used to generate error bars corresponding to the standard deviation. […]

The next data set deals with T3, PTHR (Homo sapiens, UniProt Q03431).
T3 construct: expressed in transfected cells
T3 sequence (Q03431 27-593): T1 sequence (Q03431 27-593)
Nature of the data set: cAMP induction potency, N-terminal modifications and cyclic constraints (Tables 9, 10, 13). In kind it is cell-based. Conditions: Table 9.

From patent publication US10501518B2 (priority 2013, dated 2019) come the findings set out here.

Where two headings read alike, the source gives them in different places.

As for `CC[C@H](C)[C@H](NC(=O)[C@H](CCC(=O)O)NC(=O)[C@H](CO)NC(=O)[C@@H](NC(=O)[C@@H](N)CO)C(C)C)C(=O)N[C@@H](CCC(N)=O)C(=O)N[C@@H](CC(C)C)C(=O)N[C@@H](CCSC)C(=O)N[C@@H](Cc1c[nH]cn1)C(=O)N[C@@H](CC(N)=O)C(=O)N[C@@H](CC(C)C)C(=O)NCC(=O)N[C@@H](CCCCN)C(=O)N[C@@H](Cc1c[nH]cn1)C(=O)N[C@@H](CC(C)C)C(=O)N[C@@H](CC(N)=O)CC(=O)N[C@@H](CO)C(=O)N[C@@H](CCSC)C(=O)N[C@@H](CCC(=O)O)C(=O)N[C@@H](CCCNC(=N)N)CC(=O)N[C@H](C(=O)N[C@@H](CCC(=O)O)C(=O)N[C@@H](Cc1c[nH]c2ccccc12)C(=O)N[C@H](CC(=O)N[C@@H](CCCNC(=N)N)C(=O)N[C@@H](CCCCN)C(=O)N[C@@H](CCCCN)C(=O)N[C@H](CC(=O)N[C@@H](CCC(N)=O)C(=O)N[C@@H](CC(=O)O)C(=O)N[C@H](C(=O)N[C@@H](CCC(N)=O)CC(=O)N[C@@H](CC(N)=O)C(=O)N[C@@H](Cc1ccccc1)C(N)=O)C(C)C)CC(C)C)CC(C)C)C(C)C` [B5], the IC50 at R^0 form of human PTHR-1 (Table 1, COS-7 membranes, 125I-PTH(1-34) tracer, GTPγS, read-out: R^0 IC50, nM, Binding (hPTHR-1)) is 19 nM. For the same molecule, at R^0 form of human PTHR-1, the “R^0/RG” value worked out at 225 and the “affinity for the R^0 state of hPTHR-1, in words” value is on record as “an order of magnitude more weakly”.

Take `CC[C@H](C)[C@H](NC(=O)[C@H](CCC(=O)O)NC(=O)[C@H](CO)NC(=O)[C@@H](NC(=O)[C@@H](N)CO)C(C)C)C(=O)N[C@@H](CCC(N)=O)C(=O)N[C@@H](CC(C)C)C(=O)N[C@@H](CCSC)C(=O)N[C@@H](Cc1cnc[nH]1)C(=O)N[C@@H](CC(N)=O)C(=O)N[C@@H](CC(C)C)C(=O)NCC(=O)N[C@@H](CCCCN)C(=O)N[C@H](CC(=O)N[C@@H](CC(C)C)C(=O)N[C@@H](CC(N)=O)C(=O)N[C@@H](CO)C(=O)N[C@@H](CCSC)CC(=O)N[C@@H](CCC(=O)O)C(=O)N[C@@H](CCCNC(=N)N)C(=O)N[C@H](C(=O)N[C@@H](CCC(=O)O)CC(=O)N[C@@H](Cc1c[nH]c2ccccc12)C(=O)N[C@@H](CC(C)C)C(=O)N[C@@H](CCCNC(=N)N)C(=O)N[C@@H](CCCCN)CC(=O)N[C@@H](CCCCN)C(=O)N[C@@H](CC(C)C)C(=O)N[C@@H](CCC(N)=O)C(=O)N[C@@H](CC(=O)O)CC(=O)N[C@H](C(=O)N[C@@H](Cc1cnc[nH]1)C(=O)N[C@@H](CC(N)=O)C(=O)N[C@H](CC(N)=O)Cc1ccccc1)C(C)C)C(C)C)Cc1c[nH]c2ccccc12` [D6]: on R^0 form of human PTHR-1, the IC50 is 2 nM; the “R^0/RG” value worked out at 31; the “affinity for the R^0 state of hPTHR-1, in words” value is on record as “comparably to PTH(1-34)”. Further, the proteolysis by trypsin entry at trypsin was “poorer substrate than is the α-peptide”. Further, at PTHR, the “Fold PTH” value is reported as 2.1. At PTHR (read-out: EC50, nM (cAMP induction potency)), the EC50 came to 0.17 ± 0.05 nM.

Take `CC[C@H](C)[C@H](NC(=O)[C@H](CCC(=O)O)NC(=O)[C@H](CO)NC(=O)[C@@H](NC(=O)[C@@H](N)CO)C(C)C)C(=O)N[C@@H](CCC(N)=O)C(=O)N[C@@H](CC(C)C)C(=O)N[C@@H](CCSC)C(=O)N[C@@H](Cc1cnc[nH]1)C(=O)N[C@@H](CC(N)=O)C(=O)N[C@@H](CC(C)C)C(=O)NCC(=O)N[C@@H](CCCCN)C(=O)N[C@@H](Cc1cnc[nH]1)C(=O)N[C@@H](CC(C)C)C(=O)N[C@@H](CC(N)=O)C(=O)N[C@@H](CO)C(=O)N[C@@H](CCSC)C(=O)N[C@@H](CCC(=O)O)C(=O)N[C@@H](CCCN=C(N)N)C(=O)N[C@H](C(=O)N[C@@H](CCC(=O)O)C(=O)N[C@@H](Cc1c[nH]c2ccccc12)C(=O)N[C@@H](CC(C)C)C(=O)N[C@@H](CCCN=C(N)N)C(=O)N[C@@H](CCCCN)C(=O)N[C@@H](CCCCN)C(=O)N[C@@H](CC(C)C)C(=O)N[C@@H](CCC(N)=O)C(=O)N[C@@H](CC(=O)O)C(=O)N[C@H](C(=O)N[C@@H](Cc1cnc[nH]1)C(=O)N[C@@H](CC(N)=O)C(=O)N[C@@H](Cc1ccccc1)C(=O)O)C(C)C)C(C)C` [PTH(1-34), reference compound]: the proteolysis by trypsin entry at trypsin is given as “Proteolysis was observed at all predicted trypsin cut sites”.

The IC50 is the concentration at which inhibition is half-maximal. A word on the EC50: it is the concentration giving half of the maximal effect.
